# From patent US20120034210A1, “COMPOSITIONS FOR POTENTIATING APOPOSIS SIGNALS IN TUMOUR CELLS” (INSTITUT BERGONIE, priority 2008, published 2012)
# Entries after “also recorded” stand apart in the source; their conditions may differ.
# Assays:
# Format in all cases: cell-based, human
# [1] = system: T and B leukemia/lymphoma cell lines and activated PBLs treated with FasL; test: Fas/CD95-mediated cell death (MTT test)
# Description: 2 to 4.10^4 cells were deposited in wells in a 96-well plate. The cells were incubated, in the presence of the different reactants for the times specified, at 37° C. in a final volume of 100 or 200 μl.
# The MTT test enabled to measure the activity of a mitochondrial enzyme, the dehydrogenase succinate which transforms MTT (or 3-(4,5-dimethylthiazol-2-yl)-2,5-diphenyltetrazolium) bromide originally yellow in colour and soluble, into blue formazan crystals, insoluble in aqueous phase. Upon completion of the different treatments, the living cells were quantified by adding in each well 15 μl PBS (Phosphate Buffered Saline) containing 5 mg/ml MTT. […] Spectrophotometric reading of absorbance was done at 570 nm. The measurement of the optical density is directly proportional to the number of living cells and the percentage of cell death was calculated with the following formula: 100-[(DO treated cells/DO non-treated cells)*100].
# [2] = system: Raji, BL2, Jurkat cell lines and activated PBL; test: Apoptosis % by loss of mitochondrial membrane potential
# Description: 2 to 4.10^4 cells were deposited in wells in a 96-well plate. The cells were incubated, in the presence of the different reactants for the times specified, at 37° C. in a final volume of 100 or 200 μl. The apoptotic cells were identified in the cellular populations by measuring mitochondrial de-polarisation. […] These potentiometric probes allowed monitoring the variations of the mitochondrial membrane potential. […] Following cell treatment with the different drugs, the former were placed in the presence of TMRM or DIOC6 at 10 nM concentration, for 20 minutes at 37° C. then the fluorescence of the cells was analysed by flow cytometry.
# [3] = system: intracellular calcium concentration; test: Intracellular Ca2+ concentration, indo-1 (micro)spectrofluorimetry
# Description: Principle: [Ca^2+]i was measured by microspectrofluorimetry using a calcium sensitive fluorescent probe: indo-1. When excited at 360 nm wavelength, the so-called monoexcitation/double emission indo-1 probe transmitted back in a spectrum ranging from 400 to 500 nm. Binding of Ca^2+ to indo-1 caused displacement of the emission spectrum after excitation. The emission maximum in the unbound form was located around 480 nm. The emission of the complexed form was around 405 nm. An increase of calcium concentration thus caused the emission to increase to 405 nm and the emission to decrease to 480 nm. The ratio of both fluorescence intensities allowed to be independent from the quantity of the probe and to determine the [Ca^2+]i according to the Grynkiewicz equation:
# [Ca^2+]i(nM)=Kd.β×(R−Rmin)/(Rmax−R)
# Rmax, Rmin and Kd. β were determined by combining electrophysiology (patch clamp) and spectrofluorimetry. Rmax was determined by placing in the patch pipette a medium containing 10 mM CaCl2. Rmin was obtained by placing as an intrapipette solution a calcium-deprived medium (10 mM EGTA).
# The cells were then rinsed with HBSS (800 rpm centrifugation for 2 minutes) and placed in an observation chamber on a glass coverslip. […] The excitation light is supplied by a Xenon lamp (100W). […] The substances to be tested were applied using a glass pipette positioned at some twenty μm of the studied cell and connected to a pneumatic system.
# The principle as well as the loading of the cells were identical with the measurement on single cells. In such a case, approx. 40,000 cells were placed in a quartz tub under constant agitation. The tub was then placed in a Hitachi spectrofluorimeter whereof the excitation monochromator was set to 350 nm. […] The signals were transmitted to a computer via an analogue/digital converter. So as to be able to apply the Grynkiewicz equation (see above) and translate the fluorescence ratios measured in calcium values, the calibration parameters were entered into the software. The substances to be tested were applied directly in the tube under constant agitation.
# CD95 [4] = test: CD95 capping (CD95-CAP), fluorescence confocal microscopy; conditions: leukemic cell lines; culture up to 24 hours
# Description: The cells were left to adhere on a slide pre-treated with poly-L-lysin (ESCO, VWR) for 5 minutes then incubated with the different reactants. The cells activated with the anti-Fas APO1-3 agonist antibody were washed and marked directly with the anti-mouse secondary antibody coupled with Alexa555 fluorochrome. The cells incubated with Rituximab (anti-CD20) were washed in a cold PBS buffer then fixed with a PBS/4% PFA (paraformaldehyde) solution for 15 min. […] The cells were washed in PBS medium then the slide was dried and the cells were placed in a mounting medium, Fluoroprep (Biomerieux) and analysed by fluorescence confocal microscopy (LSM SP5, Leica, Germany) with an x63 zoom. The DAPI (200 ng/ml) allowed colouring the nuclei.
# caspase-8 = test: Caspase-8 activation/cleavage
# CD95 [5] = test: CD95 aggregation by size exclusion chromatography; conditions: Jurkat cells; BAPTA-AM pre-treatment
# Source text: In order to validate that CD95 underwent aggregation upon down-modulation of intracellular calcium, the formation the micrometer-sized CD95-containing domain was investigated by using size exclusion chromatography (FIG. 10). Decrease in intracellular calcium allowed the redistribution of a significant proportion of CD95 into heavy weighted fractions (FIG. 10), which confirmed that the slight down-modulation of [Ca^2+]i led to the formation of cluster of CD95. It was also observed that calcium-driven CD95-CAP occurred independently of de novo expression of CD95L since no trace of the membrane-bound ligand was detected. […] Since CD95 clustering is an early step of the CD95 molecular ordering, the impact of intracellular calcium on the initial events of CD95 pathway and on cell death was further assessed.
# CD95 [6] = test: CD95 expression; conditions: 2-APB or BAPTA-AM regimens
# Description: This technique allowed detecting the presence of a protein on the cell surface. All the steps took place at 4° C. so as to reduce membrane proteins endocytosis and loss of cell labelling.
# Plasma membrane of the cells (10^6 cells per marking) was saturated for 5 minutes in 1 ml PBS containing 1% (w/v) BSA (bovine serum albumin) and 1% (v/v) foetal veal serum (FVS). This solution was used for washings and antibody dilutions.
# The cells were incubated for 30 minutes with 50 μl primary antibody (anti-Fas DX2 clone at 10 μg/ml), washed twice with the PBS/BSA/FCS solution, then incubated with 50 μl of a secondary antibody coupled with phycoerythrin for 30 minutes. After 3 washings, the cells were re-suspended in 200 μl PBS/BSA/SVF and analysed immediately by flow cytometry (FACsCalibur, BD Biosciences). The fluorescence intensity was analysed with the Cellquest software.
structure (smiles),measurement,setting,value
"CC(=O)OCOC(=O)CN(CC(=O)OCOC(C)=O)c1ccccc1OCCOc1ccccc1N(CC(=O)OCOC(C)=O)CC(=O)OCOC(C)=O [BAPTA-AM, 1,2-bis-(o-Aminophenoxy)ethane-N,N,N′,N′-tetraacetic tetra-(acetoxymethyl) acid Ester]",sensitisation to the Fas-mediated apoptotic signal (% cell death),"[1]; BAPTA-AM 1 μM pre-incubation then FasL, leukemia/lymphoma cell lines and activated PBLs",sensitised to the Fas-mediated apoptotic signal; also recorded: increase in percentage of cell death
same,sensitisation to the Fas-mediated apoptotic signal (% cell death),"[1]; BAPTA-AM 1 μM then FasL, BL2 cell line devoid of endogenous Fas",have not been sensitised
same,CD95-mediated apoptotic signal in CD95-resistant cells,"[1]; Jurkat-CD95Q257K, pre-incubation with non-cytotoxic doses",restored the CD95-mediated apoptotic signal at a level comparable to the parental cell line
same,apoptotic signal by the agent alone,"[1]; leukemic cell lines, long-term culture up to 24 hours, no CD95L",did not trigger the apoptotic signal
same,potentiation of apoptotic signals mediated by edelfosine or Rituximab,"[2]; B lymphoma cell lines, BAPTA-AM 1 μM pre-incubation",allowed potentiating apoptotic signals
same,apoptotic signal with Rituximab associated with BAPTA-AM,"[2]; BL2 cell line, deprived of Fas receptor, Rituximab resistant",no increase in the apoptotic signal has been observed
same,increase in intracellular calcium in response to extracellular 3 mM Ca2+,"[3]; Raji, BAPTA-AM 10 μM pretreatment",smaller increase in the intracellular calcium concentration
same,CD95-mediated peak of calcium,"[3]; non-cytotoxic concentrations, CD95 stimulation",totally abrogated the CD95-mediated peak of calcium
same,basal [Ca2+]i,[3]; pre-incubation of cells,induced a faint decrease in the basal [Ca^2+]i
same,CD95-CAP formation,CD95 [4],drives CD95-CAP
same,kinetic of caspase-8 cleavage upon CD95L,caspase-8; T and B-cell lines,accelerated the cleavage of the initiator caspase-8
same,caspase-8 activation or mitochondrial depolarization by the agent alone,"caspase-8; during 60 minutes treatment, no CD95L",no trace of caspase-8 activation or mitochondrial depolarization was detected
same,CD95 aggregation,CD95 [5],formation of the CD95 aggregation
same,expression of CD95,CD95 [6],did not modify the expression of CD95
